Measurements taken from US8853242B2, “Nitrogenous-ring acylguanidine derivative” (Astellas Pharma Inc., priority 2009, dated 2014).
pKi: −log10 of the molar value.

Key:
human 5-HT5A receptor = human 5-HT5A receptor (Homo sapiens (Human), UniProt P47898); experiment: Test on a human 5-HT5A receptor binding inhibition ([3H]5-CT); conditions: membrane from HEK293 cells expressing human 5-HT5A receptor, Ki calculated from IC50
Protocol: The ORF (open reading frame; protein coding region) of a human 5-HT5A receptor (Genbank AF498985) was cloned from a human hippocampus cDNA library, and then inserted into a pCR2.1 vector (Invitrogen), and Escherichia coli containing the plasmid was cultured in a large amount. Next, the full-length cDNA sequence of the human 5-HT5A receptor was analyzed, and recombined into a pCDNA3.1 vector (Invitrogen) as an expression vector and cultured in a large amount. HEK293 established cells (ATCC) derived from the human fetal kidney were seeded, the expression plasmid (1 μg) obtained above were added thereto with LIPOFECTAMINE 2000 (Invitrogen; 2 μl), the gene was transfected into HEK293 cells, and the expression cells were screened with a drug-resistant marker, Geneticin (G418 sulfate 500 μg/ml; Kanto Chemical Co., Inc.). Thus prepared recombinant cells which expressed the gene were cultured in a medium containing D-MEM (Dulbecco's modified eagle medium, Sigma), 10% FCS (Fetal calf serum: fetal bovine serum), 1% Pc./Sm (Penicillin/Streptomycin, Invitrogen), and 500 μg/ml G418 for 3 days. These experimental operations followed a manual for gene operation experiment and an instruction appended in a reagent, and the like, such as a known method (Sambrook, J. et al, Molecular Cloning-A Laboratory Manual”, Cold Spring Harabor laboratory, NY, 1989).
HEK293 cells for forced expressions of a human 5-HT5A receptor were cultured in a F500 plate, and scraped with a scraper. After centrifugation, the precipitate was collected, and an incubation buffer (50 mM Tris (HCl) (pH 7.4), 10 mM MgSO4, and 0.5 mM EDTA (ethylenediamine tetraacetic acid)) was added thereto. After homogenization, it was further centrifuged, and the incubation buffer was added to the precipitate, followed by thoroughly suspending. The operation was repeated, and protein concentration was measured, thereby completing preparation of the membrane.
A solution of the compound to be tested and 100 μM 5-CT (5-carboxamidetriptamine) in DMSO was added to a 96-well plate at 2 μl/well, suspended in an incubation buffer, and a membrane from HEK293 cells for forced expressions of a human 5-HT5A receptor prepared at 200 μg/ml was added at 100 μl/well. After incubation at room temperature for 15 minutes, a [^3H]5-CT solution (2 nM [^3H]5-CT, incubation buffer) was added thereto at 100 μl/well.
Separately, 100 μl of the solution was distributed into a liquid scintillation vial, and 2 ml of Aquasol II (registered trademark) was added thereto, followed by stirring. Then, radioactivity was measured by a liquid scintillation counter. It was incubated at 37° C. for 60 minutes. The reaction mixture was sucked into 96-well GF/C filter plate that had been pre-treated with 0.2% polyethyleneimine, and washed six times with an ice-cooled, 50 mM Tris (pH 7.5) buffer. The GF/C filter plate was dried.
Microscint TMPS (registered trademark) was added thereto at 40 μl/well. Radioactivity remaining on the GF/C filter plate was measured by a top counter.
The [^3H]5-CT binding inhibiting activity by the compound to be tested in each experiment was determined as an IC50 value with a radioactivity upon addition of DMSO alone being 0% inhibition, and a radioactivity upon addition of 1 μM 5-CT being 100% inhibition. Separately, Ki values were calculated from the Kd value of the [^3H]5-CT determined from Scatchard analysis, by the following equation. Ki=IC50(1+Concentraion of ligand added/Kd(4.95 nM))

Male ICR mouse [1] = experiment: Hyperactivity (quantity of motion) induced by MK-801 in mice; type: in vivo; conditions: MK-801 0.3 mg/kg, P<0.05
Protocol: (§1) The improvement effect of compound of formula (I) on schizophrenia was evaluated by measuring the quantity of motion inhibited by administration of the compound in a model in which the symptoms were induced by methamphetamine (hereinafter abbreviated as MAP) and MK-801.
(§2) The animal was taken out of a breeding cage, orally administered with a test compound, and then placed into a cage for breeding. After 30 minutes, the animal was put into a cage for measurement, and the quantity of motion with the test compound alone was measured. Further, after 30 to 90 minutes, the animal was taken out, and subcutaneously or intraperitoneally administered with a drug for increasing the quantity of motion (MAP; 1.5 mg/kg or MK-801; 0.3 mg/kg, dissolved in physiological saline, respectively). Then, the quantity of motion for a certain period of time (60 minutes) was measured using a device for measuring the quantity of motion (CompACT AMS manufactured by Muromachi Kikai Co., Ltd.) by means of an infrared sensor.
(§3) For a normal mouse (a mouse administered with physiological saline) and a mouse administered with a drug for increasing the quantity of motion, a Student's T test was performed for evaluation for each interval. For a group administered with the test compound, an assay was performed using a solvent (vehicle) group and a Dunnett's T test. For the evaluation, if there was a significant difference (P<0.05), it was considered that there is an effect.

Male ICR mouse [2] = experiment: Hyperactivity (quantity of motion) induced by methamphetamine (MAP) in mice; type: in vivo; conditions: oral dose 0.1 mg/kg; MAP 1.5 mg/kg; P<0.05
Protocol: as §1, §2
as §3, with “For the evaluation, if there was a significant difference (P<0.05), it was considered that there is an effect.” left out

Male ddY mouse = experiment: Spontaneous alternation behavior (Y-maze) induced by Scoporamine in mice; type: in vivo; conditions: Scoporamine 0.5 mg/kg i.p.
Protocol: The improvement effect of compound of formula (I) on cognitive impairment of dementia and schizophrenia was evaluated by a known test method as a model with short-term learning disorder.
After 10 to 30 minutes from oral administration of the test compound, 0.5 mg/kg of Scoporamine or 0.15 mg/kg of MK-801 (in the case of a normal group, physiological saline was administered) was intraperitoneally administered. After 20 minutes, the test was conducted. In addition, solvent (vehicle) was orally administered to the normal group (to which physiological saline was administered) and to the control group (to which 0.5 mg/kg of Scoporamine or 0.15 mg/kg of MK-801 was administered), when the test compound was administered.
A mouse was placed at the end of one arm of a Y-maze having arms with the same length in three directions, and then allowed to explore freely and the number of arm entries was counted for 8 minutes. Further, spontaneous alternation behavior was defined as entries into all three different arms on consecutive occasions, and the ratio of the number of instances of this behavior to the total number of the entries was calculated as an alternation rate by the following formula: Alternation rate(%)=Number of spontaneous alternation behaviors/(Total number of entries−2)×100.
If a significant difference between the normal group and the control group (Student's T test) was approved in the alternation rate (%), it was considered to have learning disorder by the administration of Scoporamine or MK-801. By carrying out a Dunnett's test on the group administered with the test compound with respect to the control group, the presence or absence of effect of the test compound on learning disorder was evaluated. For each assay, it was considered that there was a tendency when p<0.10 and there was a significant difference when p<0.05.

Sequence of human 5-HT5A receptor (P47898 whole entry): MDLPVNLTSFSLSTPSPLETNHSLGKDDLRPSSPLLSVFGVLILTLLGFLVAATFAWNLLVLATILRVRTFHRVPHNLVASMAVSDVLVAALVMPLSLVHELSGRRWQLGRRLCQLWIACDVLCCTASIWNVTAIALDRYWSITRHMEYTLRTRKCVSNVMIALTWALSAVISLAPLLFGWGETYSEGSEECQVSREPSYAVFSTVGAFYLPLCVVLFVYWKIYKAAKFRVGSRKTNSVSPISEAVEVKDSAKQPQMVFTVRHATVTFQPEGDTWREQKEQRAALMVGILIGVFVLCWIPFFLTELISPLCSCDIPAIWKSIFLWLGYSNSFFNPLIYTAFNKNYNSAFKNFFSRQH

SMILES	pKi (human 5-HT5A receptor; [3H]5-CT binding)	other results
NC(N)=NC(=O)c1ccc2ncc(Cl)c(-c3ccc(F)cc3)c2c1 [Example 73]	8.00 to 9.00	hyperactivity induced by MK-801 (Male ICR mouse [1]; oral dose 0.1 mg/kg): significantly inhibited
NC(N)=NC(=O)c1ccc2c(F)cnc(-c3c(F)cccc3F)c2c1 [Example 148]		pKi (human 5-HT5A receptor; [3H]5-CT binding inhibition): 8.85; hyperactivity induced by MAP (Male ICR mouse [2]): significantly inhibited; hyperactivity induced by MK-801 (Male ICR mouse [1]; oral dose 0.03 mg/kg): significantly inhibited; spontaneous alternation behavior induced by Scoporamine (Male ddY mouse; oral dose 0.01 mg/kg): significantly inhibited
NC(N)=NC(=O)c1ccc2c(F)cnc(-c3c(F)cncc3F)c2c1 [Example 157]	8.00 to 9.00	pKi (human 5-HT5A receptor; [3H]5-CT binding inhibition): 8.28; hyperactivity induced by MK-801 (Male ICR mouse [1]; oral dose 0.03 mg/kg): significantly inhibited; spontaneous alternation behavior induced by Scoporamine (Male ddY mouse; oral dose 0.001 mg/kg): significantly inhibited
NC(N)=NC(=O)c1ccc2c(F)cnc(-c3ccccc3F)c2c1 [Example 160]		pKi (human 5-HT5A receptor; [3H]5-CT binding inhibition): 8.48; hyperactivity induced by MK-801 (Male ICR mouse [1]; oral dose 0.01 mg/kg): significantly inhibited; spontaneous alternation behavior induced by Scoporamine (Male ddY mouse; oral dose 0.001 mg/kg): significantly inhibited
Cc1cnc(-c2ccccc2F)c2cc(C(=O)N=C(N)N)ccc12 [Example 192]	8.00 to 9.00	pKi (human 5-HT5A receptor; [3H]5-CT binding inhibition): 8.74; hyperactivity induced by MK-801 (Male ICR mouse [1]; oral dose 0.01 mg/kg): significantly inhibited; spontaneous alternation behavior induced by Scoporamine (Male ddY mouse; oral dose 0.003 mg/kg): significantly inhibited
NC(N)=NC(=O)c1ccc2c(Cl)cnc(-c3ccc(F)cc3F)c2c1 [Example 211]	8.00 to 9.00	pKi (human 5-HT5A receptor; [3H]5-CT binding inhibition): 8.64
NC(N)=NC(=O)c1ccc2c(Cl)cnc(-c3cc(F)c(F)cc3F)c2c1 [Example 212]	7.00 to 8.00	
Cc1ccccc1-c1ncc(Cl)c2ccc(C(=O)N=C(N)N)cc12 [Example 213]	8.00 to 9.00	
NC(N)=NC(=O)c1ccc2c(Cl)cnc(-c3cc(F)ccc3F)c2c1 [Example 214]	8.00 to 9.00	
NC(N)=NC(=O)c1ccc2c(C(F)F)cnc(-c3ccccc3F)c2c1 [Example 215]	7.00 to 8.00	
NC(N)=NC(=O)c1ccc2c(F)cnc(-c3c(O)cccc3F)c2c1 [Example 216]	8.00 to 9.00	

Continued, in another order:

pKi (human 5-HT5A receptor; [3H]5-CT binding)	SMILES	other results
8.00 to 9.00	Cc1cccc(C)c1-c1ncc(Cl)c2ccc(C(=O)N=C(N)N)cc12 [Example 222]	
7.00 to 8.00	NC(N)=NC(=O)c1ccc2c(CO)cnc(-c3c(F)cccc3F)c2c1 [Example 224]	
6.52 to 7.00	NC(N)=NC(=O)c1ccc2cccc(-c3ccccc3)c2n1 [Example 225]	
8.00 to 9.00	NC(N)=NC(=O)c1ccc2cccc(-c3c(F)cc(F)cc3F)c2n1 [Example 226]	
7.00 to 8.00	NC(N)=NC(=O)c1cnc2cccc(-c3c(F)cc(F)cc3F)c2c1 [Example 227]	
7.00 to 8.00	NC(N)=NC(=O)c1ccc2cncc(-c3ccc(F)cc3F)c2c1 [Example 228]	
